Experimental findings from patent publication US8895559B2, “Quinoxalines derivatives and pharmaceutical compositions and kits” (Merck Patent GmbH, priority 2010, dated 2014) are described below.

The IC50 is the concentration that inhibits the measured activity by half. High values mean weaker potency, low ones greater potency.

The assay concerns PI3K. Briefly: Cellular testing of PI3K inhibitors: P-S473-PKB Luminex assay in PC3 cells. Type of assay: cell-based. How it is done:
Description of the Method for the Cellular Testing of PI3K Inhibitors
The cellular assay for determination of the P-S473-PKB level is carried out as a Luminex assay in 96-well format in PC3 cells.
PC3 cells are sown out with 20,000 cells per well in 100 μl medium (45% RPMI1460/45% Ham's F12/10% FCS) and incubated on the following day for 30 min with a serial dilution of the test substance (7 concentrations) under serum-free conditions. […] The lysates are incubated overnight at 4° C. with shaking with Luminex beads to which an anti-total PKB antibody is coupled. The detection is carried out on the following day by addition of a P-S473-PKB antibody and a species-specific PE-labelled secondary antibody. The detection of P-S473-PKB is carried out by measurement in a Luminex 100 instrument by determination of 100 events per cavity in a measurement time of 60 sec. […] The values of the preparations treated with test substance are calculated from this as percent of control, and IC50 values are determined by means of RS1.

Setting [1] is: PI3K-dependent phosphorylation of PKB at Serin 473 in PC3 cells.

Take `COc1cc(Nc2nc3ccccc3nc2NS(=O)(=O)c2cccc(C(=O)N(C)C)c2)c(OCCCO)c(OC)c1` [Compound A97]: the 50% inhibitory concentration (IC50) (PI3 kinase inhibition, cell) lay in the range of 100 to 10000 nM.
On to `COc1cc(Nc2nc3ccccc3nc2NS(=O)(=O)c2cccs2)c(OCCN(C)CCO)c(OC)c1` [Compound A60], for which the IC50 (PI3 kinase inhibition, cell) was in the range of 1 to 100 nM.
As for `COc1cc(Nc2nc3ccccc3nc2NS(=O)(=O)c2ccn(C)n2)c(OCCC(C)(C)O)c(OC)c1` [Compound A125], the IC50 (PI3 kinase inhibition, cell) lay within 1 to 100 nM.
Same read-out and setting: the value for `COc1cc(Nc2nc3ccccc3nc2NS(=O)(=O)c2cnn(C)c2)c(OCCCO)c(OC)c1` [Compound A44] was 1 to 100 nM; that for `COc1cc(Nc2nc3ccccc3nc2NS(=O)(=O)c2cn(C)cn2)c(CCCCO)c(OC)c1` [Compound A7] was 100 to 10000 nM.
On to `COc1cc(Nc2nc3ccccc3nc2NS(=O)(=O)c2cccc(C#N)c2)c(OCCOCCO)c(OC)c1` [Compound A63], for which the IC50 (PI3 kinase inhibition, cell) fell in the range of 100 to 10000 nM.
For the setting “PI3 kinase inhibition, cell”, `COc1cc(Nc2nc3ccccc3nc2NS(=O)(=O)c2ccn(CCN(C)C)n2)c(OCCC(C)O)c(OC)c1` (stereo not shown) [Compound A129, 1-(2-Dimethylaminoethyl)-1H-pyrazole-3-sulfonic acid {3-[2-(3-hydroxybutoxy)-3,5-dimethoxy-phenylamino]quinoxalin-2-yl} amide] showed an IC50 of 1 to 100 nM.
Consider `COc1cc(Nc2nc3ccccc3nc2NS(=O)(=O)c2ccc(F)c(F)c2)c(OCCCO)c(OC)c1` [Compound A71], for which the IC50 (PI3 kinase inhibition, cell) was 1 to 100 nM.
Still for that read-out and setting: the value for `COc1cc(Nc2nc3ccccc3nc2NS(=O)(=O)c2ccc(CN(C)C)cc2)c(OCCCO)c(OC)c1` [Compound A38, 4-dimethylaminomethyl-N-{3-[2-(3-hydroxypropoxy)-3,5-dimethoxyphenylamino]quinoxalin-2-yl}benzenesulfonamide] was 1 to 100 nM; that for `COc1cc(Nc2nc3ccccc3nc2NS(=O)(=O)c2ccncc2)c(OCCCO)c(OC)c1` [Compound A21] was > 10000 nM; that for `CCc1c(Nc2nc3ccccc3nc2NS(=O)(=O)c2cn(C)cn2)cc(OC)cc1OC` [Compound A14] was 100 to 10000 nM.
Regarding `COc1cc(Nc2nc3ccccc3nc2NS(=O)(=O)c2cn(C)cn2)c2c(c1)OCCO2` [Compound A10], where the note is “PI3 kinase inhibition, cell”, the concentration for half-maximal inhibition (IC50) fell in the range of 100 to 10000 nM.
On the same count and under the same terms, the value for `COc1cc(Nc2nc3ccccc3nc2NS(=O)(=O)c2cn(C)cn2)c2c(c1)OCC(CO)O2` (stereo not shown) [Compound A127] was 100 to 10000 nM; that for `COc1cc(Nc2nc3ccccc3nc2NS(=O)(=O)c2cnn(CC(=O)N(C)C)c2)c(OCCCO)c(OC)c1` [Compound A27] was 100 to 10000 nM; that for `COc1cc(Nc2nc3ccccc3nc2NS(=O)(=O)c2ccn(C(F)(F)C(=O)N(C)C)n2)c(OCCCO)c(OC)c1` [Compound A119] was 100 to 10000 nM.
On the same count and under the same terms, under `COc1cc(Nc2nc3ccccc3nc2NS(=O)(=O)c2cn(C)c(CN(C)C)n2)c(OCCC(C)O)c(OC)c1` (stereo not shown) [Compound A28] stands 1 to 100 nM.
The same measure, in the same setting: the value for `COc1cc(Nc2nc3ccccc3nc2NS(=O)(=O)c2cn(C)cn2)c(OCCOCCO)c(OC)c1` [Compound A81] was 100 to 10000 nM.
Compound `COc1cc(Nc2nc3ccccc3nc2NS(=O)(=O)c2cn(C)cn2)c2c(c1)OC(CO)CO2` (stereo not shown) [Compound A124] yielded an IC50 (PI3 kinase inhibition, cell) of 100 to 10000 nM.
In turn, `COc1cc(Nc2nc3ccccc3nc2NS(=O)(=O)c2cn(C)c(CN(C)C)n2)c(OCCC(C)(C)O)c(OC)c1` [Compound A128] had an IC50 (PI3 kinase inhibition, cell) of 100 to 10000 nM.
In turn, `COc1cc(Nc2nc3ccccc3nc2NS(=O)(=O)c2ccn(C)n2)c(OCCOCCO)c(OC)c1` [Compound A112] yielded a 50% inhibitory concentration (IC50) (PI3 kinase inhibition, cell) of 100 to 10000 nM.
The compound `COCCOCCOc1c(Nc2nc3ccccc3nc2NS(=O)(=O)c2cn(C)cn2)cc(OC)cc1OC` [Compound A47] returned an IC50 (PI3 kinase inhibition, cell) of 1 to 100 nM.
Take `COc1cc(Nc2nc3ccccc3nc2NS(=O)(=O)c2ccccc2OC)c(OCCCO)c(OC)c1` [Compound A26]: the concentration for half-maximal inhibition (IC50) (PI3 kinase inhibition, cell) lay within 100 to 10000 nM.
On the same count and under the same terms, the value for `COc1cc(Nc2nc3ccccc3nc2NS(=O)(=O)c2ccccc2)c(OCCOCCO)c(OC)c1` [Compound A58] was 1 to 100 nM; that for `COc1cc(Nc2nc3ccccc3nc2NS(=O)(=O)c2cn(C)c(CN(C)C)n2)c(OCCCCO)c(OC)c1` [Compound A113] was 100 to 10000 nM; that for `COc1cc(Nc2nc3ccccc3nc2NS(=O)(=O)c2ccc(C#N)cc2)c(OCC(O)CO)c(OC)c1` (stereo not shown) [Compound A74] was 1 to 100 nM.
Compound `CCN(CC)Cc1nc(S(=O)(=O)Nc2nc3ccccc3nc2Nc2cc(OC)cc(OC)c2OCCCO)cn1C` [Compound A126] had an IC50 (PI3 kinase inhibition, cell) of 100 to 10000 nM.
As for `COc1cc(Nc2nc3ccccc3nc2NS(=O)(=O)c2ccccc2)c(OCCCO)c(OC)c1` [Compound A30], the IC50 (PI3 kinase inhibition, cell) was in the range of 1 to 100 nM.
Take `COc1cc(Nc2nc3ccccc3nc2NS(=O)(=O)c2ccn(CCN(C)C)n2)c(OCCCO)c(OC)c1` [Compound A130, 1-(2-Dimethylaminoethyl)-1H-pyrazole-3-sulfonic acid {3-[2-(3-hydroxypropoxy)-3,5-dimethoxy-phenylamino]quinoxalin-2-yl} amide]: the 50% inhibitory concentration (IC50) (PI3 kinase inhibition, cell) was 1 to 100 nM.
For `COc1cc(Nc2nc3ccccc3nc2NS(=O)(=O)c2ccn(CC(=O)N(C)C)n2)c(OC)c(OC)c1` [Compound A131], the half-maximal inhibitory concentration (IC50) (PI3 kinase inhibition, cell) fell in the range of 1 to 100 nM.
Same read-out and setting: the value for `COc1cc(Nc2nc3ccccc3nc2NS(=O)(=O)c2ccc(C(=O)N(C)C)cc2)c2occc2c1` [Compound A15] was > 10000 nM.
Same read-out and setting: the value for `COc1cc(Nc2nc3ccccc3nc2NS(=O)(=O)c2cnn(C(F)F)c2)c(OCCCO)c(OC)c1` [Compound A29] was 1 to 100 nM; that for `COc1cc(Nc2nc3ccccc3nc2NS(=O)(=O)c2ccc(C#N)cc2)c(CCCCO)c(OC)c1` [Compound A6] was 1 to 100 nM; that for `COc1cc(Nc2nc3ccccc3nc2NS(=O)(=O)c2ccc(NC(C)=O)cc2)c(OCCOCCO)c(OC)c1` [Compound A62] was 100 to 10000 nM.
For `CCc1cc(OC)cc(Nc2nc3ccccc3nc2NS(=O)(=O)c2cn(C)cn2)c1OC` [Compound A17], the IC50 (PI3 kinase inhibition, cell) is > 10000 nM.
Same read-out and setting: under `COc1cc(Nc2nc3ccccc3nc2NS(=O)(=O)c2cn(C)cn2)c(OCCN2CCOCC2)c(OC)c1` [Compound A54] stands 100 to 10000 nM; under `COc1cc(Nc2nc3ccccc3nc2NS(=O)(=O)C2CCS(=O)(=O)C2)c(OCCCO)c(OC)c1` (stereo not shown) [Compound A35], 1 to 100 nM.
Same read-out and setting: the value for `COc1cc(Nc2nc3ccccc3nc2NS(=O)(=O)C(F)(F)F)c(OCCCO)c(OC)c1` [Compound A39] was 1 to 100 nM.
`CCOC(=O)Nc1ccc(S(=O)(=O)Nc2nc3ccccc3nc2Nc2cc(OC)cc(OC)c2OCCCO)cc1` [Compound A34]: the IC50 (PI3 kinase inhibition, cell) was 100 to 10000 nM.
In turn, `COc1cc(Nc2nc3ccccc3nc2NS(=O)(=O)c2cnn(C)c2)c(OCCC(C)O)c(OC)c1` (stereo not shown) [Compound A43] displayed an IC50 (PI3 kinase inhibition, cell) of 100 to 10000 nM.
The same measure, in the same setting: under `COc1cc(Nc2nc3ccccc3nc2NS(=O)(=O)c2cccs2)c(OCCO)c(OC)c1` [Compound A66] stands 1 to 100 nM; under `COc1cc(Nc2nc3ccccc3nc2NS(=O)(=O)c2ccc(C(=O)NCC(F)(F)F)cc2)c(OCCCO)c(OC)c1` [Compound A95], 100 to 10000 nM; under `COc1cc(Nc2nc3ccccc3nc2NS(=O)(=O)c2ccn(CC(=O)N(C)C)n2)c(OCCCO)c(OC)c1` [Compound A122], 1 to 100 nM.
On the same count and under the same terms, under `COc1cc(Nc2nc3ccccc3nc2NS(=O)(=O)c2cn(C)cn2)c2oc(C(=O)N(C)C)cc2c1` [Compound A9] stands 100 to 10000 nM; under `COc1cc(Nc2nc3ccccc3nc2NS(=O)(=O)CCC#N)c(OCCCO)c(OC)c1` [Compound A96], 100 to 10000 nM.
Turning to `COc1cc(Nc2nc3ccccc3nc2NS(=O)(=O)c2cn(C)cn2)c(OCCCO)c(OC)c1` [drawing 163], under setting [1], the IC50 was found to be 96 nM.
`COc1cc(Nc2nc3ccccc3nc2NS(=O)(=O)c2ccn(C)n2)c(OC)c(OC)c1` [Compound A121] yielded an IC50 (PI3 kinase inhibition, cell) of 1 to 100 nM.
Same read-out and setting: under `COc1cc(Nc2nc3ccccc3nc2NS(=O)(=O)C(F)F)c(OCCCO)c(OC)c1` [Compound A114] stands 100 to 10000 nM; under `COc1ccc(S(=O)(=O)Nc2nc3ccccc3nc2Nc2cc(OC)cc(OC)c2OCCOCCO)cc1` [Compound A61], 100 to 10000 nM.
On the same count and under the same terms, the value for `COc1cc(Nc2nc3ccccc3nc2NS(=O)(=O)c2ccn(C)n2)c(OCCC(C)O)c(OC)c1` (stereo not shown) [Compound A100] was 1 to 100 nM.
`COc1ccc(CCCO)c(Nc2nc3ccccc3nc2NS(=O)(=O)c2cn(C)cn2)c1` [reference compound] yielded an IC50 under setting [1] of 370 nM.
Consider `COc1cc(Nc2nc3ccccc3nc2NS(=O)(=O)c2cn(C)cn2)c(OCCS(C)(=O)=O)c(OC)c1` [Compound A55], for which the IC50 (PI3 kinase inhibition, cell) is 1 to 100 nM.
Consider `COc1cc(Nc2nc3ccccc3nc2NS(=O)(=O)CCCS(C)(=O)=O)c(OCCCO)c(OC)c1` [Compound A36], for which the concentration for half-maximal inhibition (IC50) (PI3 kinase inhibition, cell) is 1 to 100 nM.
The compound `COc1cc(Nc2nc3ccccc3nc2NS(=O)(=O)c2cn(C)c(CN(C)C)n2)c(OCCC(C)O)c(OC)c1` (stereo not shown) [drawing 153] registered an IC50 under setting [1] of 4.6 nM.
In turn, `COc1cc(Nc2nc3ccccc3nc2NS(=O)(=O)C(F)(F)F)c(OC)c(OC)c1` [Compound A40] registered an IC50 (PI3 kinase inhibition, cell) of 1 to 100 nM.
The same measure, in the same setting: the value for `COc1cc(Nc2nc3ccccc3nc2NS(=O)(=O)c2ccc(C#N)cc2)c(OCCN(C)CCO)c(OC)c1` [Compound A78] was 1 to 100 nM; that for `COc1cc(Nc2nc3ccccc3nc2NS(=O)(=O)c2cnn(C(F)F)c2)c(OCCC(C)O)c(OC)c1` (stereo not shown) [Compound A103] was 1 to 100 nM; that for `COc1cc(Nc2nc3ccccc3nc2NS(=O)(=O)c2cn(C)cn2)c(OCCS(=O)(=O)CCO)c(OC)c1` [Compound A77] was 100 to 10000 nM.
The same measure, in the same setting: the value for `COc1cc(Nc2nc3ccccc3nc2NS(C)(=O)=O)c(OCCCO)c(OC)c1` [Compound A25] was 100 to 10000 nM.
